Experimental data: patent publication US9499486B2, “Kinase inhibitor” (RESPIVERT LIMITED, priority 2014, dated 2016)

Columns and labels:
[1] = molecular target: B-Raf (Homo sapiens (Human), UniProt P15056); assay: KINOMEscan binding of B-Raf to standard ligand
Text: (§1) These assays may be conducted by DiscoverX (formerly Ambit; San Diego, Calif.).

[2] = test system: Salmonella typhimurium, strains TA1535, TA1537, TA98 and TA100 and Escherichia coli, WP2 uvrA; assay: Bacterial reverse mutation screen (plate incorporation)
[3] = test system: Jurkat cells; assay: Cell cytotoxicity assay (assay r); format: cell-based, human
Procedure: 1×10^5 Jurkat cells (immortalised human T lymphocytes) are added to the appropriate number of wells of a 96 well plate in 100 μL of media (RPMI supplemented with 10% foetal bovine serum). 1 μL of DMSO control (final concentration 1.0% v/v) or test compound (final concentration 20, 5 or 1 μg/mL) is added to the wells and incubated at 37° C., 5% CO2. After 24 hours, the plate is centrifuged at 1200 rpm for 3 minutes and the supernatant discarded. Cells are then resuspended in 150 μL (final concentration 7.5 μg/mL) of propidium iodide (PI) in PBS and incubated at 37° C., 5% CO2 for 15 minutes. After 15 minutes, cells are analysed by flow cytometry (BD accuri) using the FL3 window. The % viability is calculated as the % of cells that are PI negative in the test wells normalised to the DMSO control.

[4] = molecular target: human ether a go-go (hERG) channel (Homo sapiens (Human), UniProt Q12809); assay: hERG inhibition, IonWorks patch clamp electrophysiology; format: cell-based; conditions: IonWorks patch clamp
Procedure: The compound of the invention was tested for inhibition of the human ether a go-go (hERG) channel using IonWorks™ patch clamp electrophysiology at Essen Bioscience (Welwyn Garden City, England).

[5] = molecular target: B-Raf (V600E) (Homo sapiens (Human), UniProt P15056, V600E); assay: KINOMEscan binding of B-Raf (V600E) to standard ligand
Text: as §1

[6] = test system: PBMCs; assay: Cell mitosis assay (assay g); format: cell-based, human
Procedure: Peripheral blood mononucleocytes (PBMCs) from healthy subjects are separated from whole blood (Quintiles, London, UK) using a density gradient (Histopaque-1077, Sigma-Aldrich, Poole, UK). The PBMCs (3 million cells per sample) are subsequently treated with 2% PHA (phytohaemagglutinin, Sigma-Aldrich, Poole, UK) for 48 hr, followed by a 20 hr exposure to varying concentrations of test compounds. At 2 hr before collection, PBMCs are treated with demecolcine (0.1 μg/mL; Invitrogen, Paisley, UK) to arrest cells in metaphase. To observe mitotic cells, PBMCs are permeabilised and fixed by adding Intraprep (50 μL; Beckman Coulter, France), and stained with anti-phospho-histone 3 (0.26 ng/L; #9701; Cell Signalling, Danvers, Mass.) and propidium iodide (1 mg/mL; Sigma-Aldrich, Poole, UK) as previously described (Muehlbauer P. A. and Schuler M. J., Mutation Research, 2003, 537:117-130). Fluorescence is observed using an ATTUNE flow cytometer (Invitrogen, Paisley, UK), gating for lymphocytes.

[7] = molecular target: GSK3α (Homo sapiens (Human), UniProt P49840); assay: GSK3α enzyme inhibition (Method 2), Z-LYTE FRET; format: biochemical
Procedure: The enzyme inhibitory activities of the compound disclosed herein are determined by FRET using synthetic peptides labelled with both donor and acceptor fluorophores (Z-LYTE, Invitrogen Ltd., Paisley, UK).
The inhibitory activities of the compound of the invention against the GSK 3α enzyme isoform (Invitrogen), are evaluated by determining the level of activation/phosphorylation of the target peptide. The GSK3-α protein (500 ng/mL, 2.5 μL) is mixed with the test compound (2.5 μL at either 4 μg/mL, 0.4 μg/mL, 0.04 μg/mL, or 0.004 μg/mL) for 2 hr at RT. The FRET peptide (8 μM, 2.5 μL), which is a phosphorylation target for GSK3α, and ATP (40 μM, 2.5 μL) are then added to the enzyme/compound mixture and the resulting mixture incubated for 1 hr. Development reagent (protease, 5 μL) is added for 1 hr prior to detection in a fluorescence microplate reader (Varioskan® Flash, ThermoFisher Scientific).
In all cases, the site-specific protease cleaves non-phosphorylated peptide only and eliminates the FRET signal. Phosphorylation levels of each reaction are calculated using the ratio of coumarin emission (donor) over fluorescein emission (acceptor), for which high ratios indicate high phosphorylation and low ratios indicate low phosphorylation levels. […]

[8] = molecular target: p38 MAPKα (Homo sapiens (Human), UniProt Q16539); assay: KINOMEscan dissociation constant, p38 MAPKα; format: binding
Text: as §1

[9] = Systemic pharmacokinetics and total colon tissue distribution after single oral administration; format: in vivo, mouse; conditions: mice, single oral administration
Procedure: Studies were conducted by Sai Life Sciences (Hinjewadi, Pune, India) to investigate the systemic pharmacokinetics and total colon tissue distribution of the compound of the invention. In particular, pharmacokinetic studies were carried out in male C57BL/6 mice following a single oral administration of the compound.

[10] = molecular target: c-Src (Homo sapiens (Human), UniProt P12931); assay: c-Src enzyme inhibition, Z-LYTE FRET; format: biochemical
Procedure: The relevant enzyme (3000 ng/mL or 2000 ng/mL respectively, 2.5 μL) is incubated with the test compound (either 1 μg/mL, 0.1 μg/mL, 0.01 μg/mL, or 0.001 μg/mL, 2.5 μL each) for 2 hr at RT. The FRET peptides (8 μM, 2.5 μL), and appropriate ATP solutions (2.5 μL, 800 μM for c-Src, and 60 μM ATP for Syk) are then added to the enzymes/compound mixtures and the mixture incubated for 1 hr. Development reagent (protease, 5 μL) is added for 1 hr prior to detection in a fluorescence microplate reader (Varioskan® Flash, ThermoFisher Scientific).
In all cases, the site-specific protease cleaves non-phosphorylated peptide only and eliminates the FRET signal. Phosphorylation levels of each reaction are calculated using the ratio of coumarin emission (donor) over fluorescein emission (acceptor), for which high ratios indicate high phosphorylation and low ratios indicate low phosphorylation levels.

[11] = Stability of pharmaceutical formulations (1 mg/mL solutions); format: physicochemical; conditions: 5° C.
Procedure: The samples were sonicated to achieve clear solutions having the following properties: Osmolality (mOsm/kg): 310 (Na), 314 (HCl); pH: 7.00 (Na), 7.05 (HCl). 0.5 mL of the stock solutions were diluted to 1 mL with 20% DMSO in water & injected for purity analysis by HPLC. The remaining stock solutions were then split into aliquots of 0.5 mL in HPLC vials, and stored at various conditions in duplicate. Samples were stored at 5 and 25° C., before being analysed by HPLC at 1, 2 and 4 weeks. Separate samples were stored at 40° C. and analysed at 4 weeks.

Chain of B-Raf (P15056 whole entry): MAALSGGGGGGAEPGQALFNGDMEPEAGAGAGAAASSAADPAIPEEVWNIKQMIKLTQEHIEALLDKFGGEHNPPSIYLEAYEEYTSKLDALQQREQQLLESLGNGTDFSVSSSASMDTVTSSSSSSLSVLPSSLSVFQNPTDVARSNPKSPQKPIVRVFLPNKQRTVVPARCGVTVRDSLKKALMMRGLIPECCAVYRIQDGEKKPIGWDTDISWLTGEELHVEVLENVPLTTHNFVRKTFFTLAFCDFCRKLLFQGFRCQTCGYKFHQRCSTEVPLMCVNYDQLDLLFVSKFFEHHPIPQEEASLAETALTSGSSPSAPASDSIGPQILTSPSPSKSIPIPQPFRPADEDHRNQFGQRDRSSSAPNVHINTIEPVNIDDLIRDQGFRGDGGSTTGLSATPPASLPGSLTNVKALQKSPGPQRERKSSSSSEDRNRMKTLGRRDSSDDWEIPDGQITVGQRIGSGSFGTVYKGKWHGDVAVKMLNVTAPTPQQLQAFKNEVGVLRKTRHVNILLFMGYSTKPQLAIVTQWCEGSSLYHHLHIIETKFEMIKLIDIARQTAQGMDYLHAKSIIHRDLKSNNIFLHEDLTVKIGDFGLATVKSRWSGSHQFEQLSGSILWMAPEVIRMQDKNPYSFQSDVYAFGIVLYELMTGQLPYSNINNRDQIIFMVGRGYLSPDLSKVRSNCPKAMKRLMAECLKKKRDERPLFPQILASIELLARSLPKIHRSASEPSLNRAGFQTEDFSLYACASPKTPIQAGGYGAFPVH
Chain of human ether a go-go (hERG) channel (Q12809 whole entry): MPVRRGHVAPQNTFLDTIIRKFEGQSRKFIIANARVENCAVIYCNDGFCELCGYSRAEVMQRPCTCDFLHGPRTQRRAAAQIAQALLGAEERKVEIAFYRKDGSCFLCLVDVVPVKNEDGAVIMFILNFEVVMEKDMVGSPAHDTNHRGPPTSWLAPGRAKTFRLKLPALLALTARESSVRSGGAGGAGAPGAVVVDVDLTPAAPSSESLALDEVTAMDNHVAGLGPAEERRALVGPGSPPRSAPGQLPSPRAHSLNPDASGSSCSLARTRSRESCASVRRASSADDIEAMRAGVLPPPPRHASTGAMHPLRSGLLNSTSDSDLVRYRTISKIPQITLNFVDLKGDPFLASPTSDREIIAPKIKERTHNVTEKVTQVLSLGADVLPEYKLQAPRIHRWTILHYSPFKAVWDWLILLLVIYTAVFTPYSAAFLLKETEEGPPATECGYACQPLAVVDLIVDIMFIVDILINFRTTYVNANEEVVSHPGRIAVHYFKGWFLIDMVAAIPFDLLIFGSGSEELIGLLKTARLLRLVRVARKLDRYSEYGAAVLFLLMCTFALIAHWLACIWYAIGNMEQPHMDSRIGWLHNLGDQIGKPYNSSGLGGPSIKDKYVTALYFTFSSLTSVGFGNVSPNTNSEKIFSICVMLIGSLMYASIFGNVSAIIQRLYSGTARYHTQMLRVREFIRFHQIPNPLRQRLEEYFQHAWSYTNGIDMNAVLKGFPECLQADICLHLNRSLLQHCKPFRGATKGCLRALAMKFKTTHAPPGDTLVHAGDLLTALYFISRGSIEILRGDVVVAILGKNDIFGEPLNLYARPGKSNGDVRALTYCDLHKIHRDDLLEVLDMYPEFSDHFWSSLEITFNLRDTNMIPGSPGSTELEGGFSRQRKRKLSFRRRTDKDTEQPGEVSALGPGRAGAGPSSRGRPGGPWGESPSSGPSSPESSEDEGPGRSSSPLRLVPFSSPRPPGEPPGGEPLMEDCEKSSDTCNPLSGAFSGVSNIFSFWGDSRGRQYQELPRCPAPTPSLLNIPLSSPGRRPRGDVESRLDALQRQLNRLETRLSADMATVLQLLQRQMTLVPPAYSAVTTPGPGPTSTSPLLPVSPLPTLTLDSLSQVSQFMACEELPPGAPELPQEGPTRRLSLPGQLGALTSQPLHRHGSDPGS
Chain of c-Src (P12931 whole entry, looked up): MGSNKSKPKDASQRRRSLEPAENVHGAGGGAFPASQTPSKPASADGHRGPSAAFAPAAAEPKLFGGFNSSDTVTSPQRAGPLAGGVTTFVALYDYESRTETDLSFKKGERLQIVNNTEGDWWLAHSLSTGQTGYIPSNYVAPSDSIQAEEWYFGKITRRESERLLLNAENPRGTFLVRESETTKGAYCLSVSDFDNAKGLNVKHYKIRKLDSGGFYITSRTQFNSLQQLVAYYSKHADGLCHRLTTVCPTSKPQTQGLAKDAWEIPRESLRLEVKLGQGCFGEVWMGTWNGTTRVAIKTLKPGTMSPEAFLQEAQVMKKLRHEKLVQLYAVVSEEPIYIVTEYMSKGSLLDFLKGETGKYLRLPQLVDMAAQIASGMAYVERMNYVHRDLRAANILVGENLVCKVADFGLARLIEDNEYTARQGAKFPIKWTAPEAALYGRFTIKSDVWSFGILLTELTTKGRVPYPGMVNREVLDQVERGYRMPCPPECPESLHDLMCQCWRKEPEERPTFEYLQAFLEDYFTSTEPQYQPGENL
Chain of p38 MAPKα (Q16539 whole entry, looked up): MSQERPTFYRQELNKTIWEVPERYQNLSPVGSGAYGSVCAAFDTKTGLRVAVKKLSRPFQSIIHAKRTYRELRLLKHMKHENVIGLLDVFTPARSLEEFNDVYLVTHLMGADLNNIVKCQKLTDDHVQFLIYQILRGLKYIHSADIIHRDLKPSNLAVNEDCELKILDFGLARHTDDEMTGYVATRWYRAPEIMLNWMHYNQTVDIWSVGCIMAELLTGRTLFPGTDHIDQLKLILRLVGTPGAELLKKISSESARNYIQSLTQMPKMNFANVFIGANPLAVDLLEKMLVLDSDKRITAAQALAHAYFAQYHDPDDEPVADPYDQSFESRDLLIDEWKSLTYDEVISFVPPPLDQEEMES
Chain of GSK3α (P49840 whole entry): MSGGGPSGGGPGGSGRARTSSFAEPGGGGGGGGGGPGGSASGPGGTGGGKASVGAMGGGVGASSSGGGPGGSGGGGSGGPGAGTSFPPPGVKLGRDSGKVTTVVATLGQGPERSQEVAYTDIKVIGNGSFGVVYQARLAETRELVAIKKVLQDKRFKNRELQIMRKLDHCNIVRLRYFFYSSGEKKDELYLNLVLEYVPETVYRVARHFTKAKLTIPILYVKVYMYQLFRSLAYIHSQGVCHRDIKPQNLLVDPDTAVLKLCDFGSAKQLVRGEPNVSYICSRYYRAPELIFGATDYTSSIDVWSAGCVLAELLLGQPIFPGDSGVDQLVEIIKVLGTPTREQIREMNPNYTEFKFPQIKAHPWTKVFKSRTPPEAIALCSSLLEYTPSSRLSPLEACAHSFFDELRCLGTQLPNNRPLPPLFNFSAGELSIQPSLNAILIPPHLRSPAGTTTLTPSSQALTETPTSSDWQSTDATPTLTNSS
Chain of B-Raf (V600E) (P15056 whole entry V600E): as the sequence (P15056 whole entry) above, with V600E counted along it

COc1cc(Nc2cc(Oc3ccc(NC(=O)Nc4cc(C(C)(C)C)cc(NS(C)(=O)=O)c4OC)c4ccccc34)ccn2)ccc1C(=O)O [Example 1, 4-((4-((4-(3-(5-(tert-Butyl)-2-methoxy-3-(methylsulfonamido)phenyl)ureido)naphthalen-1-yl)oxy)pyridin-2-yl)amino)-2-methoxybenzoic acid]
effect on the binding of B-Raf to its standard ligand [1]: did not have any significant effect
mutagenic effects ([2]; 15-1500 μg/plate, all strains, presence and absence of S-9 mix): absence of any mutagenic effects
toxicity of the test item to the bacteria ([2]; 500 and 1500 μg/plate in TA98, 1500 μg/plate in TA1535, presence of S-9 mix): reduction in the mean colony count
limit of solubility in mutation test ([2]; all strains, presence and absence of S-9 mix, plate incorporation): 1500 μg/plate
increases in revertant numbers ([2]; any strain, any dose level, presence or absence of S-9 mix): no dose-related or statistically significant increases
% Viability at 1 μg/mL ([3]; 1 μg/mL, 24 hours): 94.6%
% Viability at 5 μg/mL ([3]; 5 μg/mL, 24 hours): 96.1%
% Viability at 20 μg/mL ([3]; 20 μg/mL, 24 hours): 95.8%
cytotoxicity compared with Reference Compound ([3]; assay (r)): substantially less cytotoxic than the Reference Compound
IC50 [4]: > 3300 nM
effect on the binding of B-Raf (V600E) to its standard ligand [5]: did not have any significant effect
impact on cell division (mitosis) in PBMCs compared with Reference Compound [6]: markedly less active than the Reference Compound
IC50 [7]: 115 nM
Kd [8]: 2.8 nM
systemic plasma or blood exposures [9]: very low or negligible
IC50 [10]: 14 nM
stability in solution [11]: stable
